Data on four compounds can be found in patent US20110281369A1 (Board of Governors for Higher Education, State of Rhode …, priority 2006, published 2011).

Data set [1] is described as follows: MPA concentration in saliva of kidney transplant recipients by LC-MS/MS. The format is in vivo, human. The protocol:
Indomethacin (INDO, Alfa Aesar) was used as the internal standard. All reagents and solvents were high performance liquid chromatography (HPLC) grade. […] Calibrators and Quality Control standards (QCs) were prepared using pooled unstimulated whole saliva collected from at least six healthy volunteers (IRB Approval#HU0203-120). […] All calibrators and QCs were aliquoted into 2 mL cryovials and maintained at −20° C. until use.
Extraction of MPA from saliva was carried out by protein precipitation. Calibrators, QC's or patient samples were thawed in a shaking water bath at 37° C. for 5 min. The samples were then sonicated for 10 seconds and 100 μL was pipetted into a microcentrifuge tube, followed by the subsequent additions 50 μL methanol containing INDO (500 μg/L) and […] acetonitrile. The tubes were vortex mixed for 90 seconds and centrifuged at 16,000 g for 5 min. The supernatants were carefully aspirated into glass culture tubes and dried at 50° C. in a centrifugal evaporator (Thermosavant Holbrook, N.Y.) after which they were reconstituted with 100 μL of 85:15% v/v of methanol and 0.05% formic acid in de-ionized water and a 20 μL aliquot was injected onto the column.
Analytical column was Zorbax Rx C8 (150 mm×4.6 mm, 5 μm) from Agilent Technologies (Palo Alto, Calif.) and mobile phase was a gradient mixture of methanol and deionized water containing 0.05% formic acid. […] For this, a combined mixture of the analytes (1 mg/L each) in mobile phase was infused continuously onto the mass spectrometer and the residues extracted from blank saliva were injected simultaneously via a three way T-valve. In accordance with further embodiments, the ionization technique may involve any of photoionization, electrospray ionization, atmospheric pressure chemical ionization, electron capture ionization or selective ion monitoring, and may be performed in positive mode or negative mode.
(§1) Patients were receiving 1000-2000 mg/day mycophenolate mofetil (Cellcept® Roche Laboratories). Unstimulated saliva samples were collected by passive drool into a plastic cup within a 5-min period of blood collection and stored at −80° C. until analysis. The patients remained fasted for the first 2 hours of sampling but then were allowed standard hospital meals.
(§2) Given the fact that the possibility of blood leakage in saliva is high at morning trough (FIG. 3), have collected 144 additional saliva samples obtained during another pharmacokinetic study. Therefore the data represented in the next section were obtained from 29 kidney transplant recipients throughout a 12-hour dosing interval.

Data set [2] can be described thus: Total and unbound MPA and metabolite concentrations in plasma of kidney transplant recipients (HPLC-UV; ultrafiltration followed by LC-MS/MS). The note with it: 29 kidney transplant recipients. The class given is in vivo, human. The method, then: as §1, §2
Data set [3] is described as follows: Stability of MPA in saliva based quality control standards (freeze-thaw, short term, autosampler). The class given is physicochemical. The note with it: for Short term stability: bench top 5 hours at room temperature; for Short term stability / Freeze-thaw stability / Autosampler stability: n=3, mean ± SD, in % (unit assumed); for Freeze-thaw stability: three cycles of freezing at −20° C. and thawing at room temperature; for Autosampler stability: dried and reconstituted extracts 14-hours in autosampler. The protocol:
The lower limit of quantification (LLOQ) and limit of detection (LOD) were defined at a signal to noise ratio of 5:1 and 3:1, respectively. The recovery of the extraction procedure was done by comparing the peak areas obtained from an extracted saliva based standard of MIPA or INDO with the peak areas of these analytes in methanol. To evaluate intraday coefficient of variation (CV %) of the assay, QCs were analyzed six times on the same day. Interday CV % and accuracy was evaluated by measuring the QC concentrations over 10 days using a separate calibration curve for each set. […] For short term stability studies, samples were kept on the bench top for 5 hours at room temperature and for freeze-thaw stability studies, samples were subjected to three cycles of freezing at −20° C. and thawing unassisted at room temperature. To evaluate autosampler stability, dried and reconstituted extracts were kept in the autosampler for 14-hours and then analyzed.

Data set [4] is described as follows: Stock solution stability of methanolic stock solutions at room temperature. The class given is physicochemical. The settings on record: 8 hours, against freshly prepared samples.
The conditions of data set [5]: cited from earlier work.
Where [6] appears, read: 29 kidney transplant recipients, N=243.
Setting [7] is: 29 kidney transplant recipients, N=246.

“And” between values parts separate entries of the source, which are not always exact repeats. Equal values may be shown once.

Take `COc1c(C)c2c(c(O)c1C/C=C(\C)CCC(=O)O[C@@H]1O[C@H](C(=O)O)[C@@H](O)[C@H](O)[C@H]1O)C(=O)OC2` [AcMPAG, Acyl-MPAG]: in data set [1] (saliva of kidney transplant recipients, LC-MS/MS chromatogram), the “Presence of AcMPAG peak in patient saliva” value is “no AcMPAG peak was observed”. Besides, in data set [2] (plasma, N=244), the “AcMPAG conc, Mean ± SD” value worked out at 1.8 ± 1.4 mg/L; the “AcMPAG conc, Median” value is given as 1.5 mg/L; the “AcMPAG conc, Min-Max” value was in the range of 0.4 to 8.5 mg/L.
Usually pKa stands for the negative logarithm of the acid dissociation constant. For `COc1c(C)c2c(c(O)c1C/C=C(\C)CCC(=O)O)C(=O)OC2` [MPA, Mycophenolic acid], in data set [1] (11 kidney transplant recipients, morning trough), the “Salivary concentration of MPA before administration of Cellcept morning dose (morning trough)” value was determined as 79.8 ± 63.7 µg/L. Also, in data set [1] (11 kidney transplant recipients, n=100 samples, 12-hour dosing interval), the “Saliva concentration of MPA, range” value was 2.6 to 2204 µg/L and 2.6 to 220.4 µg/L. Besides, the “Saliva concentration of MPA, Mean±SD” value in data set [1] (11 kidney transplant recipients, n=100 samples, 12-hour dosing interval, 1000-2000 mg/day mycophenolate mofetil) worked out at 31.4 ± 32.3 µg/L. Also, the “Average deviation between saliva and unbound plasma concentrations” value in data set [1] (29 kidney transplant recipients, 244 saliva samples) is 0.49 ng/mL. Also, in data set [1] (setting [6]), the “Deviation between saliva and unbound conc, Mean ± SD (average deviation)” value was 0.49 µg/L and 0.49 ± 44.25 µg/L; the “Deviation between saliva and unbound conc, Median” value was found to be 1.89 µg/L; the “Deviation between saliva and unbound conc, Min-Max” value was -208.10 to 264.54 µg/L. In data set [1] (setting [7]), the “Saliva MPA conc, Mean ± SD” value stood at 28.3 ± 32.3 µg/L; the “Saliva MPA conc, Median” value turned out to be 18.1 µg/L; the “Saliva MPA conc, Min-Max” value lay within 1.4 to 283.9 µg/L. Besides, the “Saliva MPA compared with unbound plasma concentration” value in data set [1] (two hours post dose, absorption phase) was “considerably lower”. Besides, in data set [2] (plasma ultrafiltrate, N=243), the “Unbound MPA conc, Mean ± SD” value was 27.9 ± 36.6 µg/L; the “Unbound MPA conc, Median” value came out at 14.5 µg/L; the “Unbound MPA conc, Min-Max” value is 1.8 to 267.0 µg/L. In addition, in data set [2] (plasma, N=244), the “Total MPA conc, Median” value is given as 2.3 mg/L and the “Total MPA conc, Min-Max” value lay within 0.3 to 38.5 mg/L. Besides, the “Total MPA conc, Mean ± SD” value in data set [2] (plasma, N=244, 12-hour dosing interval) amounted to 3.7 ± 4.7 mg/L. Further, in data set [3] (10 μg/L MPA in saliva), the Short term stability is recorded as 106.0 ± 3.6 and the Freeze-thaw stability is recorded as 103.6 ± 7.1. In data set [3] (10 μg/L MPA), the Autosampler stability is listed as 95.0 ± 6.6. In data set [3] (600 μg/L MPA in saliva), this compound showed a Short term stability of 98.7 ± 2.7 and a Freeze-thaw stability of 98.9 ± 1.1. This compound returned an Autosampler stability in data set [3] (600 μg/L MPA) of 98.2 ± 0.6. In addition, the “Stability in saliva based standards (in words)” value in data set [3] (under the experimental condition described) is “stable”. Further, the “Loss of analyte at room temperature from methanolic stock solution” value in data set [4] is reported as 0.6%. The pKa in data set [5] is 4.5.
Take `COc1ccc2c(c1)c(CC(=O)O)c(C)n2C(=O)c1ccc(Cl)cc1` [INDO, Indomethacin]: in data set [4], the “Loss of analyte at room temperature from methanolic stock solution” value was found to be 10%.
Regarding `COc1c(C)c2c(c(O[C@@H]3O[C@H](C(=O)O)[C@@H](O)[C@H](O)[C@H]3O)c1C/C=C(\C)CCC(=O)O)C(=O)OC2` [MPAG, MPA-glucuronide], in data set [2] (plasma, N=244), the “MPAG conc, Mean ± SD” value is given as 51.8 ± 31.6 mg/L; the “MPAG conc, Median” value is reported as 43.8 mg/L; the “MPAG conc, Min-Max” value lay in the range of 10.6 to 180.5 mg/L.
